Data on 6 molecules can be found in ChEMBL document CHEMBL4007384, “Synthesis and optimization of furano[3,2-d]pyrimidines as selective spleen tyrosine kinase (Syk) inhibitors” (Bioorg Med Chem Lett, 2016).

Series [1] in a line: Clearance in rat at 1 mg/kg, iv. Type of series: ADME, organism-based. Particulars: in vivo; call rule not given here.
Series [2] concerns Rattus norvegicus. The experiment in a line: Antiarthritic activity in rat model of collagen-induced arthritis assessed as inhibition of paw swelling at 1 mg/kg, bid for 8 days relative to control. Type of series: functional. The conditions noted are these: 192 h.
Series [3] relates to Rattus norvegicus. The experiment in a line: Toxicity in rat model of collagen-induced arthritis at 0.3 to 30 mg/kg, po bid for 8 days. The format is organism-based. The conditions noted are these: in vivo, 192 h.
Series [4] has as its target Cytochrome P450 3A4 (Homo sapiens, UniProt P08684). As to the kind of experiment: Time-dependent inhibition of CYP3A4 in human liver microsomes at 10 to 50 uM. The format is ADME. In general terms: Liver microsomes are vesicles of endoplasmic reticulum, rich in cytochrome P450 enzymes.
Series [5] in a line: Solubility in pH 5 FeSSIF at 0.2 mg sonicated for 10 mins followed by incubation for 2 days by HPLC analysis. Type of series: physicochemical.
For series [6], the system named is Rattus norvegicus. The experiment in a line: Antiarthritic activity in po dosed rat model of collagen-induced arthritis assessed as inhibition of paw swelling administered bid for 8 days. Particulars: 192 h.
Series [7] in a line: Volume of distribution at steady state in dog at 1 mg/kg, iv. The format is ADME, organism-based, Canis lupus familiaris. Particulars: in vivo, read-out: Vdss.
Series [8] in a line: Cmax in dog at 1 mg/kg, po. The format is ADME, organism-based, Canis lupus familiaris. Further details: dose 1 mg/kg, route oral. The conditions noted are these: in vivo.
Series [9] in a line: Volume of distribution at steady state in rat at 1 mg/kg, iv. The conditions noted are these: in vivo, read-out: Vdss. Type of series: ADME, organism-based.
The subject of series [10] is Rattus norvegicus. The experiment in a line: Antiarthritic activity in rat model of collagen-induced arthritis assessed as inhibition of paw swelling at 0.3 mg/kg, bid for 8 days relative to control. Type of series: functional. The conditions noted are these: 192 h.
Series [11] can be described thus: Unbound clearance in human microsomes. The format is ADME, Microsome.
A short description of series [12]: Unbound clearance in rat microsomes. Type of series: ADME, Microsome.
A short description of series [13]: Half life in dog at 1 mg/kg, iv. The format is ADME, organism-based, Canis lupus familiaris. The conditions noted are these: in vivo.
Series [14] has as its system Rattus norvegicus. The experiment in a line: Antiarthritic activity in po dosed rat model of collagen-induced arthritis assessed as inhibition of paw swelling administered bid for 8 days measured on day 8 up to 12 hrs. Type of series: functional.
For series [15], the system named is Rattus norvegicus. As to the kind of experiment: Antiarthritic activity in rat model of collagen-induced arthritis assessed as inhibition of paw swelling at 30 mg/kg, bid for 8 days relative to control. Particulars: 192 h. Type of series: functional.
Series [16] can be described thus: Clearance in dog at 1 mg/kg, iv. The format is ADME, organism-based, Canis lupus familiaris. Particulars: in vivo.
Series [17] has as its system Rattus norvegicus. As to the kind of experiment: Antiarthritic activity in rat model of collagen-induced arthritis assessed as inhibition of paw swelling at 3 mg/kg, bid for 8 days relative to control. The conditions noted are these: 192 h. The format is functional.
Series [18] is described as follows: Cmax in rat at 1 mg/kg, po. The format is ADME, organism-based. Also noted: dose 1 mg/kg, route oral. Particulars: in vivo.
Series [19] is described as follows: Cytotoxicity against human HepG2 cells. Type of series: cell-based.
The target in series [20] is Voltage-gated inwardly rectifying potassium channel KCNH2 (Homo sapiens, UniProt Q12809). The experiment in a line: Inhibition of human ERG.
Sequence of Voltage-gated inwardly rectifying potassium channel KCNH2 (Q12809 whole entry): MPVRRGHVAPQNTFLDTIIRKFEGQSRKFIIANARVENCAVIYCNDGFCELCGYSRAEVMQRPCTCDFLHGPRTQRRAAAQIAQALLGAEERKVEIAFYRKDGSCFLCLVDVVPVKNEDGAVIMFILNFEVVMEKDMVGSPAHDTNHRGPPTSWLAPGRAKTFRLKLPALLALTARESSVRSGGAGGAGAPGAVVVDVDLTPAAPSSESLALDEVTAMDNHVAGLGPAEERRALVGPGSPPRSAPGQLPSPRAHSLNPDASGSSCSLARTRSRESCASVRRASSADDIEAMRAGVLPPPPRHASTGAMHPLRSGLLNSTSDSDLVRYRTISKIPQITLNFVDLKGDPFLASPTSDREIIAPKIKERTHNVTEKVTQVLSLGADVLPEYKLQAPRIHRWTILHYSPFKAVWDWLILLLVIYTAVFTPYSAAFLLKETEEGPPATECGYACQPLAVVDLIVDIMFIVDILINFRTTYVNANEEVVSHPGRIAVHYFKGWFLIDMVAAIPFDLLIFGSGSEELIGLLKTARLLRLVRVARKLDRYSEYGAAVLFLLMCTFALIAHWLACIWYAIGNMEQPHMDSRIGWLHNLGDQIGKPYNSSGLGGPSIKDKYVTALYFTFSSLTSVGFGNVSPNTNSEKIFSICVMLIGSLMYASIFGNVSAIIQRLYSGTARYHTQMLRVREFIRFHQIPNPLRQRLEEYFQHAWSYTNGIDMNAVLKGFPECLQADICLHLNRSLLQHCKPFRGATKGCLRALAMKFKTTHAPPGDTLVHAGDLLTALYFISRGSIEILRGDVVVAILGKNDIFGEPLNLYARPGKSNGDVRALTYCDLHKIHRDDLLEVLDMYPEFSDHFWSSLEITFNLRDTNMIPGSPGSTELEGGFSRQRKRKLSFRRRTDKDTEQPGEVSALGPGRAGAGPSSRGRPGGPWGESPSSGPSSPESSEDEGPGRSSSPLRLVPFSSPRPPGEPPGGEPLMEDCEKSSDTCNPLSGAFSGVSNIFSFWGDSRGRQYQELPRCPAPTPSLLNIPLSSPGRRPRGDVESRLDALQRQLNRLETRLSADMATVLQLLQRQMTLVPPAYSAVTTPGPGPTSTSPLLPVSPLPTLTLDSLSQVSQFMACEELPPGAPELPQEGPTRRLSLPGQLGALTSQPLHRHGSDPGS
Series [21] can be described thus: Oral bioavailability in rat at 1 mg/kg. Particulars: in vivo. Type of series: ADME, organism-based.
For series [22], the system named is Rattus norvegicus. The experiment in a line: Antiarthritic activity in rat model of collagen-induced arthritis assessed as inhibition of paw swelling at 10 mg/kg, bid for 8 days relative to control. The conditions noted are these: 192 h. Type of series: functional.
A short description of series [23]: Oral bioavailability in dog at 1 mg/kg. Type of series: ADME, organism-based, Canis lupus familiaris. The conditions noted are these: in vivo.
A short description of series [24]: Half life in rat at 1 mg/kg, iv. The format is ADME, organism-based. Particulars: in vivo.
Series [25] can be described thus: AUC in rat at 1 mg/kg, po. The format is ADME, organism-based. The conditions noted are these: in vivo.
Series [26] in a line: AUC in dog at 1 mg/kg, po. The format is ADME, organism-based, Canis lupus familiaris. Particulars: in vivo.
The target of series [27] is T1, CYP3A4 (Homo sapiens, UniProt P08684). The experiment in a line: Inhibition of CYP3A4 in human liver microsomes assessed as residual activity at 10 uM measured after 30 mins relative to control. Type of series: ADME. The conditions noted are these: read-out: Activity.
T1 sequence (P08684 whole entry): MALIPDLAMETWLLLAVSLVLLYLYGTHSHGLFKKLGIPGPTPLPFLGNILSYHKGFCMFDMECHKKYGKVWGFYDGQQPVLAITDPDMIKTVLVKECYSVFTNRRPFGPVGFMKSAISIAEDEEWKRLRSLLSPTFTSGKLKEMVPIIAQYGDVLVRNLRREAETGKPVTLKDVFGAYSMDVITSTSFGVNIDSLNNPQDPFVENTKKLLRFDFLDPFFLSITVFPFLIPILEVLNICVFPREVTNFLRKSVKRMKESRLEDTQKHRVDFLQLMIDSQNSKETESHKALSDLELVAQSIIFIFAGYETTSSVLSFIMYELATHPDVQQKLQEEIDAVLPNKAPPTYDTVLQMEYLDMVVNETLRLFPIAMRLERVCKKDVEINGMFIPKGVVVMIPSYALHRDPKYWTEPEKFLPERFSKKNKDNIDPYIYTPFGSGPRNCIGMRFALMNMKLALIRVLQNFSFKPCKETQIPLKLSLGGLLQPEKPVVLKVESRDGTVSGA
The target in series [28] is T1, CYP3A4. As to the kind of experiment: Inhibition of CYP3A4 in human liver microsomes assessed as residual activity at 50 uM measured immediately relative to control. The format is ADME. Particulars: read-out: Activity.
The target of series [29] is T1, CYP3A4. The experiment in a line: Inhibition of CYP3A4 in human liver microsomes assessed as residual activity at 50 uM measured after 30 mins relative to control. Type of series: ADME. The conditions noted are these: read-out: Activity.
The target in series [30] is T1, CYP3A4. As to the kind of experiment: Inhibition of CYP3A4 in human liver microsomes assessed as residual activity at 10 uM measured immediately relative to control. The format is ADME. Particulars: read-out: Activity.

Values after ≈ are worked out from the molar mass of the structure shown.

Sequence of Cytochrome P450 3A4 (P08684 whole entry): as above

The term clearance denotes the rate of elimination divided by the concentration. A word on the inhibition in vivo: it is the percentage by which the read-out fell short of the control. For orientation: solubility means how much of the substance goes into solution per volume. Lower therefore signals a poorly soluble substance. Broadly, the ED50 is the dose that gives a 50% effect, or the effect in half of the subjects. The Cmax is the maximum level reached in the sampled fluid or tissue. For orientation: half-life means the time in which the quantity being followed falls by half. Read a low half-life as fast loss. What is called IC20 is the concentration at which the effect reaches the 20% level. Read a high IC20 as a need for much substance. One may read the IC50 as the midpoint of a concentration-inhibition curve. High values mean weaker potency in that assay, low ones greater potency in that assay. The bioavailability is dose-corrected exposure relative to a reference, in per cent. Lower therefore signals little systemic uptake. A word on the AUC: it is the area under the concentration-time curve, a measure of exposure. A low value points to less exposure. Turning to `COC(=O)N[C@@H]1CC(C)(C)c2ccc(Nc3nc(NCC(F)F)c4occc4n3)cc2NC1=O`, the clearance is 1.7 L/h/kg in series [1] and 0.17 L/h/kg in series [16]. Further, in series [2], the inhibition in vivo at 1 mg/kg was determined as 21%. Besides, in series [3], the Activity entry was “Non-Toxic”. Besides, the TDI result in [4] was “Not Active”. The same molecule came in with a solubility at 48 h in series [5] greater than 67 µM. Also, the ED50 in [6] stood at 9 mg/kg. The results for the Vd in series [7] and in [9] were 2.3 L/kg and 4.6 L/kg, respectively. Besides, the Cmax in series [8] was 0.151 µg/mL; in [18], 0.036 µg/mL. In [10], the inhibition in vivo at 0.3 mg/kg was determined as 21%. Also, the CL free is less than 2.3 L/h/kg in series [11] and 10.6 L/h/kg in series [12]. The half-life was 9.9 h in [13] and 2 h in series [24]. The EAUC50 in series [14] is 3.9 µg·h/mL. In addition, the inhibition in vivo at 30 mg/kg in series [15] was 95%. In addition, in series [17], the inhibition in vivo at 3 mg/kg is 28%. For the same molecule, in [19], the IC20 is greater than 10 µM. In series [20], this molecule came in with an IC50 greater than 20 µM. Besides, the bioavailability in series [21] was 27%; in [23] it was 40%. For the same molecule, the inhibition in vivo at 10 mg/kg in series [22] was 75%. Further, the AUC in series [25] worked out at 0.18 µg·h/mL; in [26] it was 2.34 µg·h/mL.

As for `COC(=O)N[C@@H]1CC(C)(C)c2ccc(Nc3nc(NC4CC4)c4occc4n3)cc2NC1=O`, the concentration in solution in series [5] (solubility at 48 h) came to 27 µM (≈ 12.2 µg/mL). Besides, the CL free in [11] was 7.4 L/h/kg; in series [12] it was 10.9 L/h/kg.

As for `CC1(C)OCC(=O)Nc2cc(Nc3nc(NC4CC4)c4occc4n3)ccc21`, the activity at 0.5 h, 10 µM in series [27] came to 56%. Further, the TDI entry in series [4] is “Active”. The same molecule yielded a solubility at 48 h in series [5] of 158 µM (≈ 59.9 µg/mL). Besides, the activity at 0 min, 50 µM in series [28] was 80%. Besides, the CL free in [11] was determined as 7.2 L/h/kg; in series [12], 12 L/h/kg. Also, the activity at 0.5 h, 50 µM in [29] was found to be 14%. For the same molecule, in [30], the activity at 0 min, 10 µM stood at 97%.

Take `CC1(C)CCC(=O)Nc2cc(Nc3nc(NC4CC4)c4occc4n3)ccc21`: the CL free in [11] was determined as 19 L/h/kg; in series [12] it was 23.8 L/h/kg.

On to `CC(C)CNc1nc(Nc2ccc3c(c2)NC(=O)COC3(C)C)nc2ccoc12`, for which the CL free was determined as 30.4 L/h/kg in series [11] and 64.5 L/h/kg in series [12].

Take `C[C@]12C=CC(=O)C=C1CC[C@@H]1[C@@H]2[C@@H](O)C[C@@]2(C)[C@H]1CC[C@]2(O)C(=O)CO` [PREDNISOLONE]: the inhibition in vivo at 3 mg/kg in [17] came out at 86%.
